From patent publication US11311523B2, “Pyridinone compound and use thereof” (KYUSHU UNIVERSITY, NATIONAL UNIVERSITY CORPORATION, priority 2015, dated 2022)

Columns and labels:
3LL cells = assay: inhibition of macropinocytosis (TMR-dextran uptake); assay type: cell-based, mouse
Description: Pharmacological Test 5 (Experiment of Inhibition of Macropinocytosis of Cancer Cells)
Macropinocytosis is a phenomenon in which cells take up various substances together with extracellular fluid while extending cellular membranes. Remodeling of actin cytoskeleton through Rac activity is known to be important.
One hundred and fifty microliters of 4×10^4 3LL cells or HT-1080 cells were seeded on the glass portion of fibronectin-coated glass-bottom culture dishes. After 16-hour culture at 37° C., the medium was changed to DMEM (serum free) and cultured for 24 hours to allow the cells to be serum-starved. Subsequently, the medium was changed to 2 mL of serum-free medium containing DMSO alone or DMSO in which each pyridinone compound was dissolved, followed by pretreatment for 1 hour. The final concentration of DMSO was adjusted to 0.2%.
The cells were added to 180 μL of medium with TMR-dextran (final concentration: 500 μg/mL)-containing DMEM (with 10% FBS) containing DMSO alone or DMSO in which a predetermined concentration of each pyridinone compound was dissolved, as in the case above, followed by incubation at 37° C. for 1 hour. Thereafter, the cells were fixed by 60-minute incubation at room temperature in a 4% paraformaldehyde solution. […] The macropinocytosis activity was measured based on the number of TMR-dextran spots per cell. […]

DHR-2 domain of DOCK1 = target: T1, DHR-2 domain of DOCK1 (Homo sapiens, UniProt Q14185); assay: in vitro GEF assay (Bodipy-FL-GTP loading of Rac); assay type: biochemical; conditions: from IC50 values for DOCK1, DOCK2, DOCK5
T1 construct: Polypeptide fragments that correspond to the DHR-2 domain of DOCK1, DOCK2, or DOCK5; Histidine-SUMO (N); made in house; host or cells: E. coli Arctic express (DE3)
T1 sequence (Q14185 1207-1617 limits assumed): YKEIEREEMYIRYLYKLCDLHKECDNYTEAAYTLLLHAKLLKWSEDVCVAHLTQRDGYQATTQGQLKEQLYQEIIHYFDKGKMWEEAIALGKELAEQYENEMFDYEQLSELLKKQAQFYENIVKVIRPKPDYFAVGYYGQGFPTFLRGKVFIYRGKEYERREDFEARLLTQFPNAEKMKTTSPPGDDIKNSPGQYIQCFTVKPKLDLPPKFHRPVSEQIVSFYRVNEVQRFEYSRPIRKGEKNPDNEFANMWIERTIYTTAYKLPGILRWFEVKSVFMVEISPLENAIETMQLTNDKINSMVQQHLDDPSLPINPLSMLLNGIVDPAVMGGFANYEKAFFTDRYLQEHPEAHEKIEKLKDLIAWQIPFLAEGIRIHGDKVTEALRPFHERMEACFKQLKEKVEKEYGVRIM
Source text: Pharmacological Test 1 (In Vitro GEF Assay)
DOCK1, DOCK2, and DOCK5, which are DOCK-A subfamily members, catalyze the GTP-GDP exchange reaction for Rac via the DHR-2 domain to activate Rac.
The in vitro GEF assay referred to in this specification used a labeled GTP (Bodipy-FL-GTP, Invitrogen), whose fluorescence intensity increases when bound to Rac.
Polypeptide fragments that correspond to the DHR-2 domain of DOCK1, DOCK2, or DOCK5 were expressed in E. coli Arctic express (DE3) cells as N-terminal Histidine-SUMO tag-fused recombinant proteins and purified by affinity column chromatography on nickel-NTA columns.
Rac was expressed in E. coli BL21 (DE3) cells as an N-terminal GST tag-fused recombinant protein and purified by affinity column chromatography on glutathione-Sepharose columns.
Subsequently, a reaction solution A containing 20 mM of MES-NaOH, 150 mM of NaCl, 10 mM of MgCl2, and 20 μM of GDP, and having an adjusted pH of 7.0 was incubated at room temperature for 30 minutes while being protected from light in the presence of each of the polypeptide fragments (DHR-2 domains) prepared above and each pyridinone compound or CPYPP dissolved at a predetermined concentration in DMSO or DMSO alone (control) to thus prepare GEF pretreated products. In all of the samples, the final DMSO concentration was adjusted to 3%.
Thereafter, 15 μM of Rac prepared above was added to the reaction solution A and directly allowed to stand on ice for 30 minutes to form a GDP-Rac complex.
Bodipy-FL-GTP was added to 100 μL of the reaction solution A containing the thus prepared GDP-Rac complex to a concentration of 3.6 μM, followed by equilibration at 30° C. for 2 minutes. After equilibration, 50 μL of the pretreated GEF was added for reaction at 30° C.
Changes in fluorescence intensity of Bodipy-FL-GTP were monitored during the reaction using an XS-N (Molecular Devices) or an Enspire spectrofluorometer (Perkin Elmer) (excitation wavelength: 488 nm, emission wavelength: 514 nm). The measured values were corrected so that the fluorescence intensity at the time that the reaction was initiated (0 seconds) was 0.
Then, an approximate curve (hyperbola) was obtained by plotting the calculated correction values on the y axis and the time (t) on the x axis using GraphPad Prism5 (GraphPad software), and the slope at t=0 to 10 seconds was considered to be an initial velocity of guanine nucleotide exchange reaction. The IC50 value was calculated taking the initial reaction velocity of the control, to which only a solvent (DMSO) was added, as 100%.

[1] = mouse body weight in the lung metastasis experiment; assay type: in vivo; conditions: 0.2, 0.6 or 2 mg/mouse iv, FIG. 17(D)
Description: (§1) Pharmacological Test 8 (Experiment for Inhibition of Lung Metastasis of Mouse Melanoma Cells)
(§2) Mouse melanoma B16F10 cells suspended in 200 μL of PBS(−) were injected (2.5 or 5×10^5 cells per mouse) into the tail vein of C57BL/6 mice (6 weeks old, female). […] For a control group, an equivalent amount of a solvent (a liquid mixture of PBS/CremophoreEL/ethanol (6:1:1)) alone was administered. The administration was performed 4 times in total: immediately before the cell transplantation, and day 1, day 3, and day 5 after the transplantation. Fourteen days after the first administration, the lung was excised from each mouse, and the number of tumor metastatic foci at the lung surface was counted.

[2] = test system: mouse melanoma B16F10 cells; assay: inhibition of lung metastasis of mouse melanoma cells; assay type: in vivo
Description: as §1, §2

| SMILES | inhibition of macropinocytosis (3LL cells) | selectivity of GEF inhibition to DOCK1 versus DOCK2 and DOCK5 (DHR-2 domain of DOCK1) | mouse body weight [1] | metastasis of melanoma cells to the lung ([2]; C57BL/6 mice, 2 mg/mouse iv, 4 times, FIG. 17(B)) | number of cells that underwent metastasis to the lung, reduced to ([2]; dose of about 0.2 mg to a mouse, iv 4 times, FIG. 17(C)) |
| --- | --- | --- | --- | --- | --- |
| O=C(Cn1cc(S(=O)(=O)N2CCCC2)ccc1=O)c1ccc(-c2ccc3ccccc3c2)cc1 [TS-28, 1-(2-(4-(naphthalen-2-yl)phenyl)-2-oxoethyl)-5-(pyrrolidin-1-ylsulfonyl)pyridin-2(1H)-one] | inhibit macropinocytosis in 3LL cells and HT-1080 cells in a concentration-dependent manner | high selectivity to DOCK1 |  |  |  |
| O=C(Cn1cc(S(=O)(=O)N2CCCC2)ccc1=O)c1ccc(-c2cccc(C(F)(F)F)c2)cc1 [TS-45, 1-(2-oxo-2-(3′-(trifluoromethyl)-[1,1′-biphenyl]-4-yl)ethyl)-5-(pyrrolidin-1-ylsulfonyl)pyridin-2(1H)-one] | inhibit macropinocytosis in 3LL cells and HT-1080 cells in a concentration-dependent manner | high selectivity to DOCK1 | not affected | significantly inhibited | about 20% |
